Data taken from patent US20240400579A1, “SPIROCYCLIC MODULATORS OF CHOLESTEROL BIOSYNTHESIS AND THEIR USE FOR PROMOTING REMYELINATION” (GENENTECH, INC., priority 2021, published 2024).

Columns and labels:
[1] = system: zymostenol accumulation in EpiSC-derived OPCs (EBP); experiment: GC/MS-based sterol profiling, zymostenol accumulation; format: cell-based, mouse; conditions: Mus musculus, 24 h, 8 doses from 0.15 nM to 333 nM, read-out: mZymo GCMS EC50
Procedure, shortened: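 EpiSC-derived mouse OPCs plated at 100,000 cells/well in N2B27 without growth factors and treated 24 h. Sterols extracted, silylated with BSTFA and measured by GC/MS (EI, full scan), quantified against cholesterol-d7. Zymostenol normalized to levels after 24 h with 100 nM positive control reference.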

[2] = target: human emopamil binding protein and human 7-dehydrocholesterol reductase co-expressing cell membrane (Homo sapiens (Human), UniProt Q15125); experiment: hEBP-DHCR7 radioligand filtration binding assay with [3H]-Compound 118A*; conditions: radioligand [3H]-Compound 118A*; HEK293 membrane co-expressing hEBP and DHCR7
Procedure, shortened: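 HEK293 membranes transiently co-expressing hEBP and hDHCR7 (10 μg/well) were incubated with [3H]-Compound 118A* (added at 25 nM) and compounds (8 doses, final 0.06–5000 nM, n=2) for 3 h at 22 °C. Bound radioactivity was read after PEI-treated GF/B filtration. IC50 came from a Hill fit of % inhibition and was converted to Ki.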

human EBP = human EBP (Homo sapiens (Human), UniProt Q15125); experiment: Competition binding assay (SPA) to determine compound affinity to EBP; conditions: radioligand [3H]-Ifenprodil 10 nM; Ki=IC50/(1+[L]/Kd); HEK293 membrane; read-out: hEBP SPA Ki
Method: Membrane preparation: To examine compound binding affinity to EBP, human EBP was overexpressed in human embryonic kidney 293 cells. Cell pellet was lysed in 10 times weight binding buffer (50 mM Tris, 5 mM MgCl2, 0.1 mM EDTA, 1× protease inhibitor cocktail, pH 7.5) on ice by using a dounce homogenizer. The solution was centrifuged at 25,000 g for 50 min at 4° C. The membrane pellet was re-suspended in binding buffer and run through a 25 5/8 gauge needle. After checking the concentration by Bradford assay, the whole cell membrane solution was adjusted to 20 mg/mL and stored at −80° C.
This binding solution was centrifuged at 400 g for 5 minutes to collect the bead/membrane mixture. After re-suspending the pellet in binding buffer at the same calculated volume with 0.01% BSA (Sigma A1933), the bead/membrane mixture was added in 384-well low-binding surface plate (PerkinElmer Cat #6057480) at 25 i/well. Radioligand at different concentrations with and without the non-radio-labeled same ligand 5 uM (for nonspecific and total signal, respectively) was added to bring final volume to 50 i/well with DMSO concentration at 0.1%. At equilibrium (3 hours after ligand addition), radiometric signal CPM was counted by using a Microbeta2 microplate counter (Perkinelmer).
Competition binding assay to determine compound affinity: The same conditions of the radioligand Kd study were used for compound single dose percentage inhibition and equilibrium dissociation constant Ki examinations, except 50 nL compound DMSO stock was pre-added in 384-well low-binding surface plate (PerkinElmer Cat #6057480) by Echo 550 (Labcyte) to reach the final concentration for single dose test at 1 uM, and dose response test from 0.06 nM to 5 uM (8 dose, 5 times dilution). A pre-incubated bead/membrane mixture was added in compound plate at 0.3 mg beads and […] membrane per well. […] At equilibrium (3 hours after ligand addition), radiometric signal was counted as described above. The percentage inhibition of compound at each testing concentration was calculated by normalizing each condition's CPM readout to full block (5 uM non-radiolabeled ligand) and non-block (DMSO) control conditions. Compound binding inhibition IC50 was determined by nonlinear regression fitting of percentage inhibition plot against compound concentration. Compound Ki was calculated from the equation Ki=IC50/(1+[L]/Kd), which [L] was radioligand concentration used in assay. All tests had N bigger or equal to 2.

EpiSC-derived OPCs = experiment: In vitro phenotypic screening of OPCs, MBP high-content imaging; format: cell-based, mouse; conditions: Mus musculus, 72 h, percentage of MBP+ oligodendrocytes; 3 days; 0.5 nM to 1000 nM; read-out: mOPC EC50
Procedure, shortened: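 Mouse EpiSC-derived OPCs seeded without growth factors and exposed 3 days at 37° C. to 8-point doses, 1000 nM to 0.5 nM final. Fixed cells stained for MBP and DAPI; high-content imaging gave percentage MBP+ oligodendrocytes, with EC50 from Hill-equation fit.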

Sequence of human EBP (Q15125 whole entry): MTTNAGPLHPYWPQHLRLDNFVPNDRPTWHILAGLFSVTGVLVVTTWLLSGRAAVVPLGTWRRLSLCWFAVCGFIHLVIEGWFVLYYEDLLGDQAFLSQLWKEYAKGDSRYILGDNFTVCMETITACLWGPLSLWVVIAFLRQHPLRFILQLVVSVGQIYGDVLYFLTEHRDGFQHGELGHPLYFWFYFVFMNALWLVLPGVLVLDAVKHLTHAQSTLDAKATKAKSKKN
Sequence of human emopamil binding protein and human 7-dehydrocholesterol reductase co-expressing cell membrane (Q15125 whole entry): as above

Structure (SMILES) | EC50 [1] [µM] | Ki [2] [µM] | Ki (human EBP) [µM] | EC50 (EpiSC-derived OPCs) [µM]
CC(Cc1cc(C(F)(F)F)nn1C(C)C)CN1CCC2(C1)CS(=O)(=O)C2 (racemic) [Example 155, (S)-6-(3-(1-Isopropyl-3-(trifluoromethyl)-1H-pyrazol-5-yl)-2-methylpropyl)-2-thia-6-azaspiro[3.4]octane 2,2-dioxide and (R)-6-(3-(1-isopropyl-3-(trifluoromethyl)-1H-pyrazol-5-yl)-2-methylpropyl)-2-thia-6-azaspiro[3.4]octane 2,2-dioxide] | 0.003 | 0.187 | 0.014 | –
C[C@H](Cc1cnc(C(F)(F)F)nc1)CN1CCC2(C1)CS(=O)(=O)C2 (single isomer, unassigned) [Compound 145B] | 0.055 | 0.106 | 0.1 | –
CC(Cc1ccc(F)c(F)c1)CN1CCC2(CC1)CS(=O)(=O)C2 (single isomer, unassigned) [212A*, 7-(3-(3,4-Difluorophenyl)-2-methylpropyl)-2-thia-7-azaspiro[3.5]nonane 2,2-dioxide] | 0.00236 | 0.0156 | – | 0.0047
C[C@H](Cc1ccc(C(F)(F)F)cc1)CN1CCC2(CC1)CS(=O)(=O)C2 (single isomer, unassigned) [216B*] | 0.00099 | 0.0156 | – | 0.0033
CC(C)(CN1CCC2(C1)CS(=O)(=O)C2)Oc1ccccc1F [Example 133, 6-(2-(2-Fluorophenoxy)-2-methylpropyl)-2-thia-6-azaspiro[3.4]octane 2,2-dioxide] | 0.072 | 0.0866 | 0.089 | –
O=S1(=O)CC2(CCN(CCOc3cnc([C@H]4CC[C@H](C(F)(F)F)CC4)c(F)c3)CC2)C1 [Compound 249, 7-(2-((5-Fluoro-6-((trans)-4-(trifluoromethyl)cyclohexyl)pyridin-3-yl)oxy)ethyl)-2-thia-7-azaspiro[3.5]nonane 2,2-dioxide] | 0.0256 | 0.0316 | – | 0.0741
C[C@H](Cc1ccc(C(F)(F)F)nc1)CN1CCC2(CC1)CS(=O)(=O)C2 (single isomer, unassigned) [Compound 217] | 0.0083 | 0.0396 | – | 0.026
O=S1(=O)CC2(CCN(CCOc3ccc(-c4ccc(C(F)(F)F)nc4)cc3)CC2)C1 [Compound 238, 7-(2-(4-(6-(Trifluoromethyl)pyridin-3-yl)phenoxy)ethyl)-2-thia-7-azaspiro[3.5]nonane 2,2-dioxide] | 0.00289 | 0.0141 | – | 0.0137
O=S1(=O)CC2(CCN(CC(F)Cc3ccc(C(F)(F)F)cc3)C2)C1 (racemic) [Example 142, (S)-6-(2-Fluoro-3-(4-(trifluoromethyl)phenyl)propyl)-2-thia-6-azaspiro[3.4]octane 2,2-dioxide and (R)-6-(2-fluoro-3-(4-(trifluoromethyl)phenyl)propyl)-2-thia-6-azaspiro[3.4]octane 2,2-dioxide] | 0.014 | 0.0161 | 0.035 | –
CC(C)(CN1CCC2(C1)CS(=O)(=O)C2)Oc1ccc(F)cc1 [Example 132, 6-(2-(4-Fluorophenoxy)-2-methylpropyl)-2-thia-6-azaspiro[3.4]octane 2,2-dioxide] | 0.0072 | 0.0147 | 0.026 | –
O=S1(=O)CCC2(CC1)CN(CCOc1ccc(F)c(F)c1)C2 [Compound 214, 2-(2-(3,4-Difluorophenoxy)ethyl)-7-thia-2-azaspiro[3.5]nonane 7,7-dioxide] | 0.015 | 0.0408 | – | 0.0504
O=S1(=O)CC2(CCN(CCOc3cnc([C@H]4CC[C@H](C(F)(F)F)CC4)c(Cl)c3)CC2)C1 [Compound 246, 7-(2-((5-Chloro-6-((trans)-4-(trifluoromethyl)cyclohexyl)pyridin-3-yl)oxy)ethyl)-2-thia-7-azaspiro[3.5]nonane 2,2-dioxide] | 0.00126 | 0.0122 | – | 0.00262
O=S1(=O)CC2(CCN(CC3(Oc4ccc(C(F)(F)F)cc4)CCC3)CC2)C1 [Compound 222, 7-((1-(4-(Trifluoromethyl)phenoxy)cyclobutyl)methyl)-2-thia-7-azaspiro[3.5]nonane 2,2-dioxide] | 0.0037 | 0.0037 | – | 0.016
CCC(C)(C)c1ccc(CC(C)CN2CCC3(CCS(=O)(=O)C3)C2)cc1 (stereo not drawn) [Compound 106] | 0.0085 | 0.00838 | – | 0.047
C[C@H](Cc1ccc(OC(F)(F)F)cc1)CN1CCC2(C1)CS(=O)(=O)C2 (single isomer, unassigned) [119B*] | 0.004 | 0.0105 | – | 0.0022
CCC(C)(C)c1ccc(CC(C)CN2CCC3(CC2)CS(=O)(=O)C3)cc1 (racemic) [Compound 110, 7-(2-Methyl-3-(4-(tert-pentyl)phenyl)propyl)-2-thia-7-azaspiro[3.5]nonane 2,2-dioxide] | 0.022 | 0.00844 | – | 0.03

Second part, the compound after the results:

EC50 [1] [µM] | Ki [2] [µM] | Ki (human EBP) [µM] | EC50 (EpiSC-derived OPCs) [µM] | Structure (SMILES)
0.2 | 0.176 | 0.059 | – | C[C@@H](Cc1cnn(CC(F)(F)F)c1)CN1CCC2(C1)CS(=O)(=O)C2 (single isomer, unassigned) [Compound 154A]
0.0048 | 0.0257 | 0.045 | – | C[C@H](Cc1ccc(C(F)F)cc1)CN1CCC2(C1)CS(=O)(=O)C2 (single isomer, unassigned) [Compound 128B]
0.0015 | 0.0156 | – | 0.01 | O=S1(=O)CC2(CCN(CC[C@@H](F)c3ccc(C(F)(F)F)cc3)C2)C1 (single isomer, unassigned) [Compound 122A]
0.25 | 0.143 | 0.053 | – | C[C@H](Cc1cnn(CC(F)(F)F)c1)CN1CCC2(C1)CS(=O)(=O)C2 (single isomer, unassigned) [Compound 154B]
